Experimental data as given in patent US11052154B2, “Ras protein degradation inducing molecule and pharmaceutical composition” (Tokyo University of Science Foundation, priority 2016, dated 2021).

Key:
[1] = biological target: T1, G12D mutant K-Ras protein (Homo sapiens, UniProt P01116, G12D); assay: Degradation (knockdown) of G12D mutant K-Ras protein forcibly expressed in HeLa cells, FACS analysis; type: cell-based
T1 construct: expressed in transfected cells; host or cells: HeLa
Description: DMSO was used as a control.

wild-type K-Ras protein = biological target: T2, wild-type K-Ras protein (Homo sapiens, UniProt P01116); assay: Degradation (knockdown) of wild-type K-Ras protein forcibly expressed in HeLa cells, Western blot analysis; type: cell-based; details: FIG. 2
T2 construct: expressed in transfected cells; host or cells: HeLa
Description: In Example 3, degradation (knockdown) of a forcibly expressed wild-type K-Ras protein in HeLa cells through TUS-007 was evaluated by Western blot analysis.
A plasmid expressing the wild-type K-Ras protein (K-Ras-WT) was prepared, as in Example 2.
As in Example 2, the plasmid was introduced into HeLa cells to transiently overexpress the wild-type K-Ras protein (specifically, a fusion protein of the wild-type K-Ras protein and GFP through a HA tag) or a DsRed protein for comparison in the cells. HeLa cells into which the plasmid had been introduced were seeded in a 24-well plate at a cell density of 4×10^4 cells/well, and then cultured under conditions of 37° C. and 5 vol % CO2 for 40 hours.
Culture was performed for 40 hours after introduction of the plasmid, and then TUS-007 was added to HeLa cells as follows. […]
After electrophoresis, proteins were transferred to a PVDF membrane (Immobion™-P, Millipore) under conditions of 100 V and 120 minutes using a tank-type blotting device and a transfer buffer (25 mM Tris-HCl, 195 mM glycine, 0.01% SDS, 15% methanol). […] Subsequently, the membrane was treated with a chemiluminescence reagent Immobilon™ Western (Millipore), and then chemiluminescence was detected using a lumino image analyzer LAS-3000 (FUJIFILM Corporation). […]

T1 sequence (P01116 1-188 isoform P01116-2 G12D): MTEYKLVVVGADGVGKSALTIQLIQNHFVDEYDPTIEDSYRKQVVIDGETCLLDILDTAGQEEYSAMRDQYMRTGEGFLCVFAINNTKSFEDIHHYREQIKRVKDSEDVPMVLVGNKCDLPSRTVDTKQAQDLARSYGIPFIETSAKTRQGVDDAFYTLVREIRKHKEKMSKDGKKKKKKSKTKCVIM
T2 sequence (P01116 1-188 isoform P01116-2): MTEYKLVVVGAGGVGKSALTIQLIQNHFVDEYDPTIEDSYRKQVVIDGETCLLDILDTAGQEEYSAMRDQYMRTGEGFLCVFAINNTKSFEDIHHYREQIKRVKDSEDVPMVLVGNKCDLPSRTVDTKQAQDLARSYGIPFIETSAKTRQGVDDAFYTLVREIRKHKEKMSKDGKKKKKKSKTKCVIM

Compound: CCC(C)[C@H](NC(=O)CCCCCCNC(=O)[C@H](CC(C)C)NC(=O)CNC(=O)c1cc(Cl)ccc1Cl)C(=O)Nc1ccc2[nH]c(Cc3c[nH]c4ccccc34)nc2c1 (stereo in doubt) [TUS-007]
- degradation of the G12D mutant K-Ras protein when both TUS-007 and MLN2238 were added ([1]; HeLa cells, MLN2238 co-added, compared with TUS-007 alone, FIG. 3): G12D mutant and G12V mutant K-Ras protein degradation was inhibited
- degradation (knockdown) of the G12D mutant K-Ras protein (shift of GFP/DsRed ratio graph) ([1]; HeLa cells, vs control (DMSO), FIG. 3): degradation of the G12D mutant and the G12V mutant K-Ras protein was induced
- comparison of degradation induction among wild-type, G12D mutant and G12V mutant K-Ras protein ([1]; from the results of FIGS. 1 and 3): excellent in inducing the degradation of the G12D mutant K-Ras protein
- amount of the wild-type K-Ras protein (Western blot) (wild-type K-Ras protein; 24 hours after addition, relative to control (DMSO)): the amount of the wild-type K-Ras protein was reduced
- amount of the wild-type K-Ras protein when both TUS-007 and MLN2238 were added (Western blot) (wild-type K-Ras protein; MLN2238 co-added, vs control (DMSO)): the amount of the wild-type K-Ras protein was increased as compared with the amount of the control (DMSO)
